The values that follow come from PMC10298926, “Biophysical Characterization of the Binding Mechanism between the MATH Domain of SPOP and Its Physiological Partners” (International Journal of Molecular Sciences, 2023).

Where a SMILES comes first, the peptide text is derived from it.

The target in assay [1] is T1, SPOP MATH WT (Homo sapiens, UniProt O43791). The assay can be described thus: Stopped-flow pseudo-first-order binding kinetics. The settings on record: 298 K. As for the experimental part: (§1) To infer the mechanism of recognition of SPOP MATH, we resorted to performing time-resolved kinetic experiments. SPOP MATH was rapidly mixed with increasing concentrations of dansylated peptides (from 2 to 10 µM for Puc and MacroH2A, and from 2 to 40 µM for PTEN) in a stopped-flow apparatus at 298 K. The binding traces obtained by monitoring the time-resolved fluorescence were satisfactorily fitted to a single exponential equation, allowing calculating the observed rate constants kobs at different peptide concentrations. We then plotted the kobs values over the concentration of dansylated peptide and fitted the data to a simple linear function equation: kobs=kon Peptide+koff where kobs is the observed rate constant; kon and koff are the microscopic association and dissociation rate constants, respectively (Figure 2). The slope and y-axis intercept represent the microscopic association and dissociation rate constant, respectively. To minimize the error associated with the indirect measurement of the dissociation rate constant, we carried out displacement experiments to determine the koff values. The displacement experiments were designed by mixing the preformed complex SPOP MATH-dansylated peptides with a high excess of nondansylated peptide, as described in the Section 4. […] On the basis of these observations, it is possible to conclude that, in the case of binding to MacroH2A and PTEN, there is the presence of an additional step, which escapes detection by stopped-flow experiments and is likely to be negligible in the case of Puc. […] We note that such a case closely resembles the presence of a so-called burst phase, which is frequently observed in protein-folding studies.
(§2) Binding kinetic experiments were performed on an Applied Photophysics DX-17MV stopped-flow apparatus (Applied Photophysics, Leatherhead, UK). Pseudo-first-order binding experiments were performed by mixing a constant concentration (2 μM) of MATH domain with increasing dansylated peptides concentrations, from 2 to 10 μM of Puc and MacroH2A, and 2 to 40 µM of PTEN. The samples were excited at 280 nm, and the emission fluorescence was recorded by using a bandpass 320 nm cutoff filter. The experiments were performed at 298 K. For ionic strength dependence with Puc and MacroH2A, the buffers used were 50 mM sodium-HEPES, pH 7.2, supplemented with 50 mM, 100 mM, 200 mM, or 500 mM of sodium chloride (NaCl). For the PTEN binding salt dependence experiments, lower concentrations of salt were added for the previous buffer list mentioned (10 mM, 25 mM, and 50 mM of sodium chloride). For each acquisition, five traces were collected, averaged, and satisfactorily fitted to a single exponential equation.

Assay [2] deals with T1, SPOP MATH WT. The assay can be described thus: Stopped-flow displacement. It counts as binding. The settings on record: preincubated complex (both 8 µM) mixed with 50 μM nondansylated peptide, 298 K, average of five single traces. As for the experimental part: as §1
Microscopic dissociation rate constants (koff) were directly measured by performing displacement experiments on an Applied Photophysics DX-17MV stopped-flow apparatus (Applied Photophysics). […] The samples were excited at 280 nm and fluorescence emission was collected by using a 330 ± 30 nm bandpass filter. […] The observed rate constants were calculated from the average of five single traces. […]

In assay [3] the target is SPOP MATH D131A (Homo sapiens, UniProt O43791, D130A, form not given). Kind of assay: Stopped-flow pseudo-first-order binding kinetics. The settings on record: dansylated Puc, 298 K. As for the experimental part: (§3) To quantitatively address the role of specific residues in the binding mechanism of SPOP MATH, we resorted to taking advantage of the site-directed mutagenesis and generated ten site-directed mutants corresponding to the residues located in the binding pocket of the SPOP MATH domain. In particular, we produced a set of single mutants where residues R71, Y88, F103, Y124, F125, K130, D131, W132, F134, and K135 were substituted with alanine.
as §2

In a further assay the target is SPOP MATH F134A (Homo sapiens, UniProt O43791, F133A, form not given). Kind of assay: Stopped-flow pseudo-first-order binding kinetics. Conditions: dansylated Puc, 298 K. As for the experimental part: as §3, §2
The target of assay [4] is SPOP MATH K130A (Homo sapiens, UniProt O43791, K129A, form not given). Kind of assay: Stopped-flow pseudo-first-order binding kinetics. The settings on record: dansylated Puc, 298 K. As to the method:
as §3, §2

Assay [5] concerns the target T2, SPOP MATH K135A (Homo sapiens, UniProt O43791, C159S/C44S/C68S/C93S/K134A).
T2 construct: engineered MATH domain of SPOP protein (residues 1–182); His-tag; made in house; host or cells: Escherichia coli BL21 (DE3)
The assay can be described thus: Stopped-flow pseudo-first-order binding kinetics. Conditions: dansylated Puc, 298 K. As for the experimental part:
as §3, §2

A further assay deals with SPOP MATH R71A (Homo sapiens, UniProt O43791, R70A, form not given). Kind of assay: Stopped-flow pseudo-first-order binding kinetics. The settings on record: dansylated Puc, 298 K. As to the method:
as §3, §2

For assay [6], the target named is T3, SPOP MATH Y125A (Homo sapiens, UniProt O43791, Y123A, form not given). Kind of assay: Stopped-flow pseudo-first-order binding kinetics. Conditions: dansylated Puc, 298 K. As to the method: as §3, §2
The next assay concerns the target SPOP MATH Y88A (Homo sapiens, UniProt O43791, Y87A, form not given). The assay can be described thus: Stopped-flow pseudo-first-order binding kinetics. The settings on record: dansylated Puc, 298 K. As for the experimental part: as §3, §2
Assay [7] addresses T4, SPOP MATH D131A (Homo sapiens, UniProt O43791, C159S/C23S/C44S/C68S/C93S/D130A).
T4 construct: engineered MATH domain of SPOP protein (residues 1–182); His-tag; made in house; host or cells: Escherichia coli BL21 (DE3)
The assay can be described thus: Stopped-flow displacement. Format: binding.
Excerpt: as §3
(§4) Microscopic dissociation rate constants (koff) were directly measured by performing displacement experiments on an Applied Photophysics DX-17MV stopped-flow apparatus (Applied Photophysics). A preincubated complex of MATH domain and dansylated peptides at a constant concentration (both 8 µM) was rapidly mixed with an excess of nondansylated peptides (50 μM). The samples were excited at 280 nm and fluorescence emission was collected by using a 330 ± 30 nm bandpass filter. The experiments were performed at 298 K in the same buffer used for the binding experiments. The observed rate constants were calculated from the average of five single traces. The observed kinetics were consistent with a single exponential decay.

Assay [8] addresses T5, SPOP MATH K130A (Homo sapiens, UniProt O43791, C159S/C23S/C44S/C68S/C93S/K129A).
T5 construct: engineered MATH domain of SPOP protein (residues 1–182); His-tag; made in house; host or cells: Escherichia coli BL21 (DE3)
The assay can be described thus: Stopped-flow displacement. It counts as binding.
Excerpt: as §3, §4

The target of assay [9] is T2, SPOP MATH K135A. Kind of assay: Stopped-flow displacement. It counts as binding. Conditions: displacement of dansylated Puc, 298 K.
Excerpt: as §3, §4
Target sequence in this assay (O43791 1-182 C44S/C68S/C93S/K134A/C159S): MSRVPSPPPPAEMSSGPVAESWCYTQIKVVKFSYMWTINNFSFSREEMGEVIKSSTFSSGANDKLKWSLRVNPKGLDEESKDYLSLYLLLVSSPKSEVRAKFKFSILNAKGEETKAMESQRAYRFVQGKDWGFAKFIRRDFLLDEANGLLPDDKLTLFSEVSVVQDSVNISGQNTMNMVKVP

Assay [10] concerns the target T3, SPOP MATH Y125A. The assay can be described thus: Stopped-flow displacement. It counts as binding. The settings on record: displacement of dansylated Puc, 298 K.
Excerpt: as §3, §4
Target sequence in this assay (O43791 1-182 Y123A, form open): as the sequence (O43791 1-182 C44S/C68S/C93S/K134A/C159S) above, with S44C, S68C, S93C, Y123A, A134K, S159C counted along it

T1 sequence (O43791 1-182): as the sequence (O43791 1-182 C44S/C68S/C93S/K134A/C159S) above, with S44C, S68C, S93C, A134K, S159C counted along it
T4 sequence (O43791 1-182 C23S/C44S/C68S/C93S/D130A/C159S): as the sequence (O43791 1-182 C44S/C68S/C93S/K134A/C159S) above, with C23S, D130A, A134K counted along it
T5 sequence (O43791 1-182 C23S/C44S/C68S/C93S/K129A/C159S): as the sequence (O43791 1-182 C44S/C68S/C93S/K134A/C159S) above, with C23S, K129A, A134K counted along it

Usually Kd stands for the free concentration of one partner at which half of the binding sites on the other are occupied at equilibrium, for simple one-to-one binding. As usually defined, the kon is the second-order rate constant of association. As a reminder, the koff is the first-order rate constant of dissociation. Read a low koff as slow dissociation. Consider `CC(C)[C@H](NC(=O)[C@H](CCC(=O)O)NC(=O)[C@H](CC(=O)O)NS(=O)(=O)c1cccc2c(N(C)C)cccc12)C(=O)N[C@H](C(=O)N[C@@H](CO)C(=O)N[C@H](C(=O)N[C@H](C(=O)N[C@@H](CO)C(=O)N[C@@H](CO)C(=O)N[C@@H](CO)C(=O)O)[C@@H](C)O)[C@@H](C)O)[C@@H](C)O` [Puc] (HELM PEPTIDE1{[CN(C)c1cccc2c(S(=O)(=O)[*:2])cccc12].D.E.V.T.S.T.T.S.S.S}$$$$V2.0), for which the Kd at SPOP MATH WT [1] (read-out: Kinetics KD, WT, from kon (pseudo-first-order) and koff (displacement)) amounted to 1.4 ± 0.4 µM; on SPOP MATH D131A [3] (kinetic KD from kon and koff), 13.3 ± 0.2 µM; on SPOP MATH F134A (kinetic KD from kon and koff), 1.7 ± 0.1 µM; at SPOP MATH K130A [4] (kinetic KD from kon and koff) it was 9.5 ± 0.1 µM; at SPOP MATH K135A [5] (kinetic KD from kon and koff), 7.2 ± 0.4 µM; on SPOP MATH R71A (kinetic KD from kon and koff) it was 3.8 ± 0.1 µM. For the same compound, the Kd at SPOP MATH Y125A [6] (kinetic KD from kon and koff) worked out at 11.7 ± 0.2 µM; at SPOP MATH Y88A (kinetic KD from kon and koff), 21 ± 4 µM. For the same compound, the kon at SPOP MATH WT [1] (stopped-flow, 2 µM MATH domain, dansylated peptide 2 to 10 µM (Puc, MacroH2A) or 2 to 40 µM (PTEN), 50 mM sodium-HEPES, pH 7.2 (for ionic strength series), five traces averaged, slope of kobs vs peptide) came to 1.9e+07 ± 1e+06 M⁻¹ s⁻¹; on SPOP MATH D131A [3] (stopped-flow, 2 µM MATH domain), 1.82e+07 ± 100000 M⁻¹ s⁻¹; at SPOP MATH F134A (stopped-flow, 2 µM MATH domain) it was 9.4e+06 ± 200000 M⁻¹ s⁻¹; at SPOP MATH K130A [4] (stopped-flow, 2 µM MATH domain), 1.3e+07 ± 2e+06 M⁻¹ s⁻¹; at SPOP MATH K135A [5] (stopped-flow, 2 µM MATH domain), 6.3e+06 ± 500000 M⁻¹ s⁻¹; at SPOP MATH R71A (stopped-flow, 2 µM MATH domain) it was 8.8e+06 ± 500000 M⁻¹ s⁻¹. In addition, the kon on SPOP MATH Y125A [6] (stopped-flow, 2 µM MATH domain) was determined as 6.71e+06 ± 20000 M⁻¹ s⁻¹; on SPOP MATH Y88A (stopped-flow, 2 µM MATH domain) it was 1.44e+07 ± 800000 M⁻¹ s⁻¹. Besides, the koff was 26.1 ± 0.1 s⁻¹ on SPOP MATH WT [2]; 241 ± 1 s⁻¹ at SPOP MATH D131A [7]; 123 ± 16 s⁻¹ at SPOP MATH K130A [8]; 45.2 ± 0.4 s⁻¹ on SPOP MATH K135A [9]; 78.0 ± 0.2 s⁻¹ at SPOP MATH Y125A [10].
